ChEMBL document CHEMBL1136676, “The inhibitory effects of squalene-derived triterpenes on protein phosphatase PP2A” (Bioorg Med Chem Lett, 2003)

Assays:
[1] = target: T1, Serine/threonine-protein phosphatase 2A activator (Homo sapiens) (UniProt Q15257); test: Inhibitory activity against protein phosphatase (PP2A) at a concentration of 100 uM using fluorescein diphosphate as substrate
T1 sequence (whole entry): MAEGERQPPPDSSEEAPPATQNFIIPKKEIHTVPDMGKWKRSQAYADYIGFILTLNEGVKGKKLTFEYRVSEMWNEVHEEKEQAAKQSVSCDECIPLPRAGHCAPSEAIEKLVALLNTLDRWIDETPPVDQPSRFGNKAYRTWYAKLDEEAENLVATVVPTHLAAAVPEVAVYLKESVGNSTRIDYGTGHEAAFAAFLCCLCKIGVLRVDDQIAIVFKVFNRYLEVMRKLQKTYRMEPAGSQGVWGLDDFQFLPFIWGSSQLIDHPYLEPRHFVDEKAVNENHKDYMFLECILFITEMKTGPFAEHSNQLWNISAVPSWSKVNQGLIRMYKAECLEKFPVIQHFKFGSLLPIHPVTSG

Homo sapiens = species on record: Homo sapiens; test: Inhibition of protein phosphatase (PP2A) at 10 uM using fluorescein diphosphate
[2] = Inhibitory activity against protein phosphatase (PP2A) at 1 uM using fluorescein diphosphate
[3] = target: T1, Serine/threonine-protein phosphatase 2A activator (Homo sapiens); test: (§1) Inhibitory activity against protein phosphatase (PP2A) at a concentration of 250 uM using fluorescein diphosphate as substrate
[4] = Inhibition of protein phosphatase (PP2A) at 250 uM
[5] = test system: Serine/threonine-protein phosphatase 2A catalytic subunit alpha; test: Inhibitory activity against protein phosphatase (PP2A) at concentration of 1 uM using fluorescein diphosphate as substrate
[6] = test system: Serine/threonine-protein phosphatase 2A catalytic subunit alpha; test: Inhibitory activity against protein phosphatase (PP2A) at concentration of 10 uM using fluorescein diphosphate as substrate
[7] = test system: Serine/threonine-protein phosphatase 2A catalytic subunit alpha; test: Inhibitory activity against protein phosphatase (PP2A) at concentration of 100 uM using fluorescein diphosphate as substrate
[8] = Inhibition of protein phosphatase (PP2A) at 100 uM
[9] = target: T1, Serine/threonine-protein phosphatase 2A activator (Homo sapiens); test: Inhibitory activity against protein phosphatase (PP2A) at a concentration of 150 uM using fluorescein diphosphate as substrate
[10] = test system: Serine/threonine-protein phosphatase 2A catalytic subunit alpha; test: Inhibitory activity against protein phosphatase (PP2A) at a concentration of 125 uM using fluorescein diphosphate as substrate
[11] = test system: Serine/threonine-protein phosphatase 2A catalytic subunit alpha; test: Inhibitory activity against protein phosphatase (PP2A) at a concentration of 200 uM using fluorescein diphosphate as substrate
[12] = target: T2, Serine/threonine-protein phosphatase 2A 55 kDa regulatory subunit B alpha isoform (Homo sapiens) (UniProt P63151); test: as §1
T2 sequence (whole entry): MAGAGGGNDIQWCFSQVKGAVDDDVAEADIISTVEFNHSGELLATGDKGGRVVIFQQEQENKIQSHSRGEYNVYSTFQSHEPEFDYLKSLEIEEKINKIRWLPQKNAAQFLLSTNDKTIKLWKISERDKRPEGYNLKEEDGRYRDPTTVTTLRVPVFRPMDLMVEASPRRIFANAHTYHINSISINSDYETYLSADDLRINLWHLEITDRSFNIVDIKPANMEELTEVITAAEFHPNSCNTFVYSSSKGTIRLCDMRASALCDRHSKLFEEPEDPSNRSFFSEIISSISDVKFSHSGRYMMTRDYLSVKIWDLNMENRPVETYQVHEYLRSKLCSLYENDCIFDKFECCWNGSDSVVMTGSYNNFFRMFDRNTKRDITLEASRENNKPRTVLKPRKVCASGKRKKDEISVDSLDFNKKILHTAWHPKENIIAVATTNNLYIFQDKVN

[13] = target: T1, Serine/threonine-protein phosphatase 2A activator (Homo sapiens); test: Inhibitory activity against protein phosphatase (PP2A) at concentration of 250 uM using fluorescein diphosphate as substrate
[14] = test system: Serine/threonine-protein phosphatase 2A catalytic subunit alpha; test: Inhibitory activity against protein phosphatase (PP2A) at a concentration of 150 uM using fluorescein diphosphate as substrate

inhibition (Homo sapiens) [%]	inhibition [2] [%]	inhibition [4] [%]	inhibition [8] [%]	Structure (SMILES)	also measured
		66.5		C=C(CC[C@H](O)[C@@]1(C)CC[C@H](C(C)(C)O)O1)[C@H]1CC[C@H]2O[C@]3(C)CC[C@@H](Br)C(C)(C)O[C@H]3CC[C@]2(C)O1	inhibition [5]: 18.9%; inhibition [6]: 20.4%; inhibition [7]: 59.7%
93.2	52.8	100	99.1	CC(C)(O)[C@H]1CC[C@](C)([C@@H](O)CC[C@](O)(CO)C2=CC[C@H]3O[C@@H]([C@]4(C)CC[C@@H](Br)C(C)(C)O4)CC[C@]3(C)O2)O1	
93.4	41.1	100	100	C=C([C@@H](O)C[C@H](O)[C@@]1(C)CC[C@H](C(C)(C)O)O1)[C@H]1CC[C@H]2O[C@@H]([C@]3(C)CC[C@@H](Br)C(C)(C)O3)CC[C@]2(C)O1	
41.9	17.9		99.5	C/C(=C\C[C@H](O)[C@@]1(C)CC[C@H](C(C)(C)O)O1)[C@H]1CC[C@H]2O[C@@H]([C@]3(C)CC[C@@H](Br)C(C)(C)O3)CC[C@@]2(C)O1	inhibition [12]: 100%
40.1	33.7	63.2	49.4	C=C(CC[C@H](O)[C@@]1(C)CC[C@H](C(C)(C)O)O1)[C@H]1CC[C@H]2O[C@@H]([C@]3(C)CCC(=O)O3)CC[C@]2(C)O1	
0	0	55.4	40.4	C=C(CC[C@H](O)[C@@]1(C)CC[C@H](C(C)(C)O)O1)[C@H]1CC[C@H]2O[C@@H]([C@]3(C)CC[C@@H](C(C)(C)O)O3)CC[C@]2(C)O1	
45.6	42.2	79.3	65.1	C=C([C@H](O)C[C@H](O)[C@@]1(C)CC[C@H](C(C)(C)O)O1)[C@H]1CC[C@H]2O[C@@H]([C@]3(C)CC[C@@H](Br)C(C)(C)O3)CC[C@]2(C)O1	
				C=C(CC[C@@H](O)[C@]1(C)CC[C@H](C(C)(C)O)O1)[C@H]1CC[C@H]2O[C@@H]([C@]3(C)CC[C@@H](Br)C(C)(C)O3)CC[C@]2(C)O1	inhibition [13]: 95.3%; inhibition [5]: 7.5%; inhibition [6]: 23.7%; inhibition [7]: 66.8%
4.7	0	57.2	65.1	C=C(CC[C@H](O)[C@@]1(C)CC[C@H](C(C)(C)O)O1)[C@H]1CC[C@H]2O[C@@H]([C@]3(C)CC[C@@H](C(C)(C)OC)O3)CC[C@]2(C)O1	
45.9		74.5	57.8	CC(CCC[C@H]1O[C@@H]([C@]2(C)CC[C@@H](Br)C(C)(C)O2)CC[C@]1(C)O)CC[C@H](O)[C@@]1(C)CC[C@H](C(C)(C)O)O1 (stereo partly specified)	inhibition [5]: 43.6%
31.8	15.2	97.8	89.6	CC(C)(O)[C@H]1CC[C@](C)([C@@H](O)CC[C@@](O)(CO)C2=CC[C@H]3O[C@@H]([C@]4(C)CC[C@@H](Br)C(C)(C)O4)CC[C@]3(C)O2)O1	
		59.8	6.5	C/C(=C/C[C@@H](O)[C@]1(C)CC[C@H](C(C)(C)O)O1)[C@H]1CC[C@H]2O[C@@H]([C@]3(C)CC[C@@H](Br)C(C)(C)O3)CC[C@]2(C)O1	inhibition [10]: 18.8%; inhibition [14]: 32.7%; inhibition [11]: 35.8%
2.7	0	55.4	43.1	C=C(CC[C@H](O)[C@@]1(C)CC[C@H](C(C)(C)O)O1)[C@H]1CC[C@H]2O[C@@H]([C@]3(C)CC[C@](OC)(C(C)C)O3)CC[C@]2(C)O1	
6.2	0	81.3	74.7	C=C(CC[C@H]1O[C@@H](C(C)(C)O)CC[C@]1(C)O)[C@H]1CC[C@H]2O[C@@H]([C@]3(C)CC[C@@H](Br)C(C)(C)O3)CC[C@]2(C)O1	

Structure (SMILES)	inhibition (Homo sapiens) [%]	inhibition [2] [%]	inhibition [4] [%]	inhibition [8] [%]	also measured
C=C(CC[C@H](O)[C@@]1(C)CC[C@H](C(C)(C)O)O1)[C@H]1CC[C@H]2O[C@@H]([C@]3(C)CC[C@@H](Br)C(C)(C)O3)CC[C@]2(C)O1	12.2	8.2			inhibition [1]: 25.2%; inhibition [3]: 37.7%
C=C(CC[C@H](O)[C@@]1(C)CC[C@H](C(C)(C)O)O1)[C@H]1CC[C@H]2O[C@@H]([C@]3(C)CC[C@@H](Br)C(C)(C)O3)CC[C@@]2(C)O1			66.4	11.4	inhibition [9]: 26.1%; inhibition [10]: 24%; inhibition [11]: 47.8%
